# Reference: US20100168033A1, “UNACYLATED GHRELIN AS THERAPEUTIC AGENT IN THE TREATMENT OF METABOLIC DISORDERS” (ALIZE PHARMA SAS, priority 2007, published 2010)
# Where two headings read alike, the source gives them in different places. Non-standard residues stand in square brackets, D forms with d. No end group written: not given here.
# Experiments:
# human pancreatic islets [1] = assay: MTT cell survival assay in human pancreatic islets; type: cell-based; settings: 1 nM to 100 nM
# Procedure: The survival effect of UAG (1-14), UAG (1-18), UAG (1-5) and UAG (17-28), with respect to that of full length UAG (1-28), was assessed in human pancreatic islets by MTT. The peptides were tested in islet cells cultured in serum deprived medium, either alone or with IFN-γ/TNF-α/IL-1β (5 ng/ml each).
# Human islet isolation—Human islets were obtained from pancreases of multiorgan donors as described (Ref. 4). Islet preparations with purity >70%, not suitable for transplantation, were provided by European Consortium for Islet Transplantation (ECIT) “Islets for Research Distribution Program,” Transplant Unit, Scientific Institute San Raffaele, Vita-Salute University, Milan. Islets (10,000) were cultured in CMRL (Invitrogen) with 10% FBS.
# (§1) Cell survival assay—Cell survival was assessed by 3-[4,5-dimethylthiazol-2-yl]-2,5 diphenyltetrazolium bromide (MTT) as described previously (Ref. 4). Cells were seeded on 96-well plates at a density of 5×10^3 cells/well. After treatments, cells were incubated with 1 mg/ml MTT for ≈1 h. The medium was aspirated, and the formazan product solubilized with 100 μl DMSO. Viability was assessed by spectrophotometry at 570 nm absorbance using a 96-well plate reader.
# HIT-T15 β-cells [2] = type: cell-based; settings: for increase of cell survival: serum-free conditions
# Procedure: MTT experiments were also performed in hamster HIT-T15 β-cells, to test the survival effect of UAG (1-28) or its fragments UAG (1-14), UAG (1-18), UAG (1-5) and UAG (17-28) in serum deprived medium, either alone or with IFN-γ/TNF-α/IL-1β. As for the experiments performed on INS-1E β-cells, the peptides were tested at increasing concentrations, ranging from 0.1 nM to 100 nM.
# The survival effect of UAG (6-13), UAG (8-13), UAG (8-12), UAG (8-11), UAG (9-12) and UAG (9-11) was assessed in cytokine-treated HIT-T15 β-cells.
# The protective effects of peptides UAG (8-13) and UAG (8-12) were found similar to those of UAG (1-14) and UAG (1-18) A peptide made of the inverse sequence of UAG (1-14) and named UAG (14-1), was used as negative control for these experiments (FIG. 5A). […] These effects were however lower than those of UAG (6-13) (FIG. 5B).
# UAG fragments with alanine (Ala) substitutions at different amino acid positions (6 to 13) were tested with regards to their survival effects in HIT-T15 hamster β-cells. The cells were cultured in serum deprived medium, either alone or with IFN-γ/TNF-α/IL-1β. The peptides were tested at the concentrations of 1 nM to 100 nM. […] Under treatment with cytokines, where cell survival was reduced by ≈18% with respect to serum starved conditions, all Ala substitutions, except those at positions 10 and 11, completely reversed cell death and brought the survival rate to levels that were even higher than those under serum-free conditions, at both 1 nM and 100 nM concentrations. These effects, were similar to those elicited by the original peptide UAG (6-13) (FIG. 11B).
# Particularly, the best effect was exerted by Gly 6-UAG (6-13), whereas the lowest was seen using AcSer 6-UAG (6-13), AcSer 6-(D)Pro 7-UAG (6-13) (FIG. 12B).
# (§2) Cell culture—Hamster HIT-T15 insulin-secreting β-cells were obtained and cultured as described (Refs. 14, 4). INS-1E rat β-cells were kindly provided by Prof. Claes B. Wollheim (University Medical Center, Geneva, Switzerland) and cultured as described (Refs. 14, 4). Cell culture reagents were from Invitrogen (Milano, Italy). Cytokines were from Biosource (Invitrogen, Italy).
# as §1
# INS-1E β-cells = assay: MTT cell survival assay in INS-1E β-cells; type: cell-based, rat; settings: peptides 0.1 nM to 100 nM
# Procedure: The peptides were tested at increasing concentrations, ranging from 0.1 nM to 100 nM.
# as §2, §1
# HIT-T15 β-cells [3] = assay: Apoptosis in cytokine-treated HIT-T15 β-cells; type: cell-based, hamster; settings: for cytokine-induced apoptosis: 24 h serum-free medium with IFN-γ/TNF-α/IL-1β, peptides 1, 10, 100 nM
# Procedure: HIT-T15 β-cells were cultured for 24 h in serum-free medium, either alone or with IFN-γ/TNF-α/IL-1β. In both cell lines, apoptosis increased under cytokine treatment, with respect to serum starvation alone. […] UAG (14-1), the inverse sequence of UAG (1-14), was used as negative control, whereas UAG (1-28), was used as positive control in each experiment.
# [4] = tested on: UAG receptor on INS-1E pancreatic β-cells; assay: [125I-Tyr4]-UAG competition binding, INS-1E membranes; design: species or system rat; settings: for binding to the UAG receptor: INS-1E cells
# Procedure: (§3) The ability of the fragment UAG (6-13) to compete in a concentration-dependent manner with [^125I-Tyr^4]-UAG for HIT-T15 (FIG. 10A) and INS-1E (FIG. 10B) binding sites was assayed. As shown in FIGS. 10A and 10B, unlabelled UAG (1-28) and UAG (6-13) competed with a similar efficacy and in a concentration-dependent fashion with [^125I-Tyr^4]-UAG for such binding sites in both cell lines.
# (§4) Binding assay—Membranes from hamster HIT-T15 and rat INS-1E to pancreatic β-cells were prepared and assayed for the presence of [^125I-Tyr^4]-UAG binding. The ability of UAG fragments to compete with the radioligand for such binding sites has been evaluated as previously described (Ref. 4). Data are presented as mean±S.E.M. of three independent experiments.
# [5] = tested on: UAG receptor on HIT-T15 pancreatic β-cells; assay: [125I-Tyr4]-UAG competition binding, HIT-T15 membranes; design: species or system hamster; settings: for binding to the UAG receptor: HIT-T15 cells
# Procedure: as §3, §4
# human pancreatic islets [6] = assay: Insulin secretion in human pancreatic islets; type: cell-based; settings: peptide 100 nM; glucose absent or 2 to 25 mM
# Procedure: The effects of UAG (1-14) and UAG (1-18), both used at 100 nM, were investigated on insulin secretion in human islets. […] UAG (1-28) and Exendin-4 were used as positive controls (FIGS. 8C and 8D).
# [7] = tested on: Streptozotocin (STZ)-treated animals; assay: Streptozotocin (STZ)-treated neonatal rats, diabetes model; type: in vivo, rat; settings: for animal survival rate: day 9 after STZ
# Source text: Natural birth occurred 6-7 days later. […] Pups were left with their mothers.
# Pancreas removal and treatment—After excision, pancreases were removed and weighed.
# ob/ob mice = assay: ob/ob mice, 4-week intraperitoneal pump infusion; type: in vivo, mouse
# Procedure: Baseline tail vein plasma samples were collected from free-fed and 16 h fasted ob/ob mice 7 and 6 days before pump implantation into K2EDTA coated capillary tubes (Microvette CB300 K2E; Sarstedt, Germany). The animals were then separated into three groups with approximately equivalent weight ranges. Ten week old mice were anesthetized, and a filled Alzet 1004 pump was inserted, delivery portal first, into the peritoneal cavity. The musculoperitoneal and skin layers were then closed using interrupted sutures (Vicryl 5.0 FS-2 absorbable suture). Animals received pumps containing either saline, 10 mg/ml UAG, or 3.5 mg/mL UAG (6-13) (n=8 per group). Alzet 1004 pumps deliver […], and infused 30 μg of hUAG/animal/day (˜600 μg/kg/day) and 10 μg of UAG (6-13)/animal/day (˜200 μg/kg/day).
# Blood samples (at 0900-1000) were obtained from fed and fasted animals at weeks 2 and 4 via the tail vein into EDTA Microvette tubes. Glucose levels in tail vein blood were measured directly using a glucometer. On the last day of treatment baseline (fasted) blood samples were taken.
# For the experimental data illustrated in FIGS. 14A, 14B, 15 and 16, the animals were obtained from Charles River Laboratories (Maastricht, The Netherlands). Animals (B6.V-Lep^ob/J, Charles River Laboratories, Belgian colony) were received in our animal facilities at 8 weeks of age, and acclimatized in individual cages for 2 weeks before treatments began. They were maintained under standard 12:12 h light:dark conditions, 21° C., and were allowed free access to food and water. The animals were also handled daily to accustom them to the method used for blood collection. The peptides were dissolved in sterile, nonpyrogenic, 0.9% saline (Baxter BV, Utrecht, The Netherlands). D-glucose was obtained from Sigma-Aldrich Chemie BV (Zwijndrecht, The Netherlands), and was dissolved at 400 mg/ml in 0.9% saline. Alzet pumps (model 1004) were obtained from Charles River Laboratories (Maastricht, The Netherlands). Pumps were filled with 0.9% saline, UAG or UAG (6-13) solution under sterile conditions, and pre-incubated in 0.9% saline for at least 48 hours at 37° C. to initiate flow. Blood glucose levels were measured directly from tail vein incisions using a Freestyle mini glucometer and test strips (ART05214 Rev.A; Abbot, Amersfoort, The Netherlands). Plasma insulin levels were assayed by Ultra-sensitive mouse insulin ELISA (Cat. #10-1150-10; Mercodia, Sweden).
# [8] = serum deprived medium with IFN-γ/TNF-α/IL-1β (5 ng/ml each)
# [9] = serum deprived medium with IFN-γ/TNF-α/IL-1β
substance,measurement,setting,value
ESKKPPAKLQPR [UAG (17-28)],cell survival (MTT),human pancreatic islets [1]; serum deprived medium alone,significantly increased survival of islet cells
same,cell survival (MTT),human pancreatic islets [1]; [8],had no effect
same,cell survival (MTT),HIT-T15 β-cells [2]; serum deprived medium alone,no significant effect
same,cell survival (MTT),HIT-T15 β-cells [2]; [9],no significant effect
same,cell survival (MTT),INS-1E β-cells; [9],reduced effect
same,cell survival (MTT),INS-1E β-cells; serum-free medium,"reduced, although significant, survival action"
Gly-Ser-Ser-Phe-Leu (GSSFL; listed as Homo sapiens) [UAG (1-5)],cell survival (MTT),human pancreatic islets [1]; serum deprived medium alone,"little, although significant survival action at 10 nM"
same,cell survival (MTT),human pancreatic islets [1]; [8],no cell protection
same,cell survival (MTT),HIT-T15 β-cells [2]; [9],slightly increased cell survival
same,cell survival (MTT),INS-1E β-cells; [9],reduced effect
same,cell survival (MTT),INS-1E β-cells; serum-free medium,"reduced, although significant, survival action"
Glu-His-Gln-Arg (EHQR; listed as Homo sapiens) [UAG (8-11)],cell survival (MTT),HIT-T15 β-cells [2]; [9],significant survival effect only at 100 nM
Ac-Ser-pro-Glu-His-Gln-Arg-Val-Gln-NH2 (Ac-S[dP]EHQRVQ-NH2; listed as Homo sapiens) [AcSer 6-(D)Pro 7-UAG (6-13)],cell survival (MTT),HIT-T15 β-cells [2]; [9],lowest
His-Gln-Arg [UAG (9-11)],cell survival (MTT),HIT-T15 β-cells [2]; [9],no significant effect at both concentrations tested
EHQRVQ [UAG (8-13)],cytokine-induced apoptosis,HIT-T15 β-cells [3],significantly inhibited apoptosis at 10 and 100 nM
His-Gln-Arg-Val (HQRV; listed as Homo sapiens) [UAG (9-12)],cell survival (MTT),HIT-T15 β-cells [2]; [9],significantly increased cell survival at both the concentrations tested
Gly-Pro-Glu-His-Gln-Arg-Val-Gln-NH2 (GPEHQRVQ-NH2; listed as Homo sapiens) [Gly 6-UAG (6-13)],cell survival (MTT),HIT-T15 β-cells [2]; [9],best effect
Ac-Ser-Pro-Glu-His-Gln-Arg-Val-Gln-NH2 (Ac-SPEHQRVQ-NH2; listed as Homo sapiens) [AcSer 6-UAG (6-13)],cell survival (MTT),HIT-T15 β-cells [2]; [9],lowest
Glu-His-Gln-Arg-Val (EHQRV; printed: Glu-His-Gln-Arg-Val) [UAG (8-12)],cytokine-induced apoptosis,HIT-T15 β-cells [3],some protective effect only at 100 nM
UAG (1-13): UAG fragment named only in b93 as binding to the UAG receptor; no sequence listed (GSSFLSPEHQRVQ),binding to the UAG receptor,[4],recognized and bound to the UAG receptor
same,binding to the UAG receptor,[5],recognized and bound to the UAG receptor
GSSFLSPEHQRVQQRKES [UAG (1-18)],cell survival (MTT),human pancreatic islets [1]; serum deprived medium alone,significantly increased cell survival at 1 nM and 10 nM
same,cell survival (MTT),HIT-T15 β-cells [2]; serum deprived medium alone,significantly increased cell viability
same,cell survival (MTT),HIT-T15 β-cells [2]; [9],significantly increased cell viability
same,cell survival (MTT),INS-1E β-cells; [9],more potent than full length UAG (1-28)
same,cell survival (MTT),INS-1E β-cells; serum-free medium,"significant survival effect, comparable to that of UAG (1-28)"
same,insulin secretion,human pancreatic islets [6],significant effect with 7.5 mM glucose
"SPEHQRVQ [UAG (6-13), Ser-Pro-Glu-His-Gln-Arg-val-Gln]",animal survival rate,[7]; 30 nmol/l,≈ 71%
same,animal survival rate,[7]; 100 nmol/l,89%
same,reduction of plasma glucose vs. STZ group,"[7]; day 70, 30 nmol/l",31%
same,reduction of plasma glucose vs. STZ group,"[7]; day 70, 100 nmol/l",14%
same,plasma insulin levels,"[7]; day 70, STZ-treated rats, UAG (6-13) at both concentrations",increasing insulin levels
same,cytokine-induced apoptosis,HIT-T15 β-cells [3],significantly reduced cytokine-induced apoptosis
same,cell number and morphology,"HIT-T15 β-cells [3]; with respect to cytokine condition, data not shown","increased the number of cells, induced cell enlargement and small islets formation"
same,binding to the UAG receptor,[4],highest binding activity
same,IC50,"[4]; INS-1E membranes, mean±S.E.M. of three experiments",2.4 ± 0.3 nM
same,increase of cell survival,HIT-T15 β-cells [2]; peptide 1 nM,≈ 18%
same,increase of cell survival,HIT-T15 β-cells [2]; peptide 100 nM,≈ 30%
same,suppressive effect on plasma glucose levels in fed animals,"ob/ob mice; fed animals, relative to saline controls",30-40%
same,fed plasma glucose levels,"ob/ob mice; fed animals, relative to saline controls, not statistically significant (RM-ANOVA)",consistent suppressive effect
same,gonadal fat weight,ob/ob mice; over the period of treatment,did not cause an increase in gonadal fat weight
same,decrease of gonadal fat pad weight relative to saline treated controls,"ob/ob mice; period of treatment, trend p<0.06",approximately 7%
same,binding to the UAG receptor,[5],highest binding activity
same,IC50,"[5]; HIT-T15 membranes, mean±S.E.M. of three experiments",3.8 ± 0.3 nM
